# Measurements: patent US10842800B2, “Concomitant administration of glucocorticoid receptor modulators and CYP3A inhibitors” (Corcept Therapeutics, Inc., priority 2017, dated 2020)
# “Also recorded” adds a separate entry of the source. Read-outs that look alike come from different tables or passages of the source.
# Tests used:
# Assay type in all cases: in vivo, human
# [1] = Effect of oral ketoconazole 400 mg OD or 200 mg BID on plasma pharmacokinetics of a 300 mg single dose of mifepristone, fasted (Example 1); details: for AUC: male, human, plasma, oral, read-out: AUCtot (mean)
# Description: This study was an open-label study in healthy male subjects.
# Healthy male volunteers between the ages of 18 to 45 years of age with a body mass index (BMI) ranging between 19 and 32 kg/m2 and a weight of at least 60 kg (132 lbs) were enrolled. Subjects had no clinically significant abnormal findings on the physical examination, ECG, blood pressure, heart rate, medical history, or clinical laboratory results during screening. The QTc interval at screening was less than 450 msec.
# In cohort 1, six subjects received ketoconazole 400 mg OD for 14 days.
# Subjects remained in the clinic on Days 2 and 3 to receive 400 mg OD oral ketoconazole fasted, and for safety evaluation and collection of blood pharmacokinetic (PK) samples. Subjects were discharged from the clinic on Day 4 following administration of 400 mg OD oral ketoconazole fasted, and returned to the clinic the mornings of Days 5 through 13 to receive 400 mg OD oral ketoconazole fasted.
# In cohort 2, six subjects received ketoconazole 200 mg BID for 14 days. […] All 12 subjects completed the study. Cohort 2 subjects participated in a Screening visit to assess eligibility and a check-in Day (Day −1) during which eligibility was re-confirmed. […] The evening of Day 1, subjects received 200 mg oral ketoconazole. Subjects remained in the clinic on Days 2, 3 and 4 to receive 200 mg BID oral ketoconazole, and for safety evaluation and collection of blood pharmacokinetic (PK) samples. Subjects were discharged from the clinic on Day 4 following evening administration of 200 mg oral ketoconazole, and returned to the clinic the morning and evening of Days 5 through 13 to receive 200 mg BID oral ketoconazole. Morning doses of ketoconazole on Days 0-13 were administered in the fasted state.
# (§1) Subjects in both cohorts returned to the study center on Day 15 for safety monitoring, and completion of the Termination Visit procedures, followed by discharge from the study. Safety was assessed by spontaneously reported adverse events, physical examinations, and routine clinical laboratory tests. To the extent possible, any adverse events deemed study drug-related and that were ongoing at the time of discharge from the study were followed-up to resolution or until a determination is made that the unresolved event was stable.
# Descriptive statistics (count, mean, median, standard deviation, minimum, maximum, and % coefficient of variation) were provided. […] Comparisons with previous study data were made.
# [2] = Safety assessment: adverse events, laboratory tests, ECG (Example 1)
# Experimental: as §1
# [3] = Effect of a 400 mg single dose of ketoconazole on PK of an 8-day regimen of 300 mg or 600 mg OD mifepristone, moderate fat breakfast (Example 2)
# Experimental: This was an open-label study in healthy male subjects. […] The 400 mg single dose of ketoconazole was given to all subjects on day 8.
# METHODOLOGY: Twelve subjects were enrolled, six in Cohort 1 and 6 in Cohort 2.
# Subjects were discharged on Day 11.
# Subjects were discharged on Day 11. Subjects in both cohorts returned to study center on Day 13 for safety monitoring, collection of the 120-hour PK draw, and completion of the Termination Visit procedures, followed by discharge from the study. To the extent possible, any adverse events deemed study drug-related and that were ongoing at the time of discharge from the study were followed-up to resolution or until a determination was made that the unresolved event was stable.
# DIAGNOSIS AND MAIN […] FOR INCLUSION: Healthy male volunteers between the ages of 18 to 45 years of age with a body mass index (BMI) ranging between 19 and 32 kg/m2 and a weight of at least 60 kg (132 lbs) were enrolled. Subjects had no clinically significant abnormal findings on the physical examination, ECG, blood pressure, heart rate, medical history, or clinical laboratory results during screening. The QTc interval at screening was less than 450 msec.
# DURATION OF TREATMENT: Up to a total of 28 days, including up to 2 weeks screening, dosing on Days 1-8, safety observation, and PK sample collection through Day 13.
# Descriptive statistics count, mean, median, standard deviation, minimum, maximum, and % coefficient of variation) were provided. Ketoconazole concentrations were listed and summarized. GM means of Cmax and total AUC were compared for the single dose in this study to the combined data of reported 400 mg single doses of ketoconazole of healthy subjects from the literature.
# [4] = Safety assessment: adverse events, physical examinations, laboratory tests (Example 2)
# Experimental: Safety was assessed by spontaneously reported adverse events, physical examinations, and routine clinical laboratory tests. Adverse event data were tabulated. Physical findings and laboratory test results were listed by subject.
# [5] = Effect of ketoconazole 200 mg BID on PK of mifepristone 600 mg OD and metabolites, with food (Example 3)
# Experimental: A single dose of ketoconazole was administered on Day −1.
# The study was a two period study design.
# [6] = Cross-study comparison of exposure to mifepristone and metabolites with historic 1200 mg OD mifepristone study (Example 3)
# [7] = Safety: adverse events, laboratory tests, vital signs, ECG (Example 3); details: mifepristone 600 mg OD Days 1-17, ketoconazole 200 mg BID Days 13-17
# [8] = Liver function of a patient with excess cortisol on ketoconazole plus reduced mifepristone dose (Examples 4-7); details: concomitant ketoconazole
# [9] = MIFE 300 mg single dose fasted, C1: Keto 400 mg OD
# [10] = Cohort 2 (600 mg OD), between Day 7 and Day 8
# [11] = 900 mg mifepristone daily with inhibition of CYP3A (extrapolated from 600 mg data)
# [12] = Test: Day 17, 600 mg mifepristone OD + 200 mg ketoconazole BID, Reference: Day 12, 600 mg mifepristone OD
# [13] = Test: present study Day 17, 600 mg mifepristone OD + 200 mg ketoconazole BID, Reference: historic study Day 7, 1200 mg mifepristone OD alone, after 34% fat meal
structure (smiles),measurement,setting,value
"CC#C[C@]1(O)CC[C@H]2[C@@H]3CCC4=CC(=O)CCC4=C3[C@@H](c3ccc(N(C)C)cc3)C[C@@]21C [Mifepristone, 11β-(4-dimethylaminophenyl)-17β-hydroxy-17α-(1-propynyl)-estra-4,9-dien-3-one]",geometric mean ratio (GMR) for AUCinf,[1]; Cohort 2 vs Cohort 1,1.05
same,geometric mean ratio (GMR) for Cmax,[1]; Cohort 2 vs Cohort 1,1.15
same,Mean Ratio Cmax (C2/C1),"[1]; Keto 200 mg BID vs 400 mg OD, MIFE 300 mg single dose",1.15 ng/mL
same,T1/2 (mean),[1]; [9],37.1 h
same,AUC,[1]; [9],117 µg·h/mL
same,AUC,"[1]; MIFE 300 mg single dose fasted, C2: Keto 200 mg BID",131 µg·h/mL
same,subjects with at least 1 treatment-emergent adverse event (TEAE),"[2]; 12 subjects, mifepristone 300 mg single dose with ketoconazole for 14 days",25%
same,TEAEs considered by the investigator to be related to the drug,[2]; Example 1,No TEAE
same,serious adverse effect (SAE),[2]; mifepristone 300 mg single dose with ketoconazole for 14 days,No subject experienced a serious adverse effect (SAE); also recorded: No subject experienced an SAE
same,increase in AUC0-24,[3]; [10],28%
same,increase in Cmax,[3]; [10],39%
same,AUC0-24 at 600 mg OD greater than at 300 mg OD,[3]; Day 7 without ketoconazole,48%
same,Cmax at 600 mg OD greater than at 300 mg OD,[3]; Day 7 without ketoconazole,42%
same,AUC0-24 at 600 mg OD greater than at 300 mg OD,[3]; Day 8 with 400 mg ketoconazole,52%
same,Cmax at 600 mg OD greater than at 300 mg OD,[3]; Day 8 with 400 mg ketoconazole,65%
same,half-life at 600 mg OD greater than at 300 mg OD,[3]; Day 8 with 400 mg ketoconazole,13%
same,"AUCt (AUC0-24 hours, mean)","[3]; MIFE 300 mg/d C1 Day 7, no ketoconazole",37.734 µg·h/mL
same,Cmax (mean),"[3]; MIFE 300 mg/d C1 Day 8, 400 mg Keto single dose",3240 ng/mL
same,TEAEs considered possibly or probably related to mifepristone administration,[4]; four subjects in Cohort 2 (600 mg),"dizziness, nausea, vomiting, dry mouth, and rash"
same,SAE,"[4]; mifepristone 300 or 600 mg OD 8 days, ketoconazole 400 mg Day 8",No subject experienced an SAE
same,subjects with at least 1 TEAE,"[4]; twelve subjects, mifepristone 300 or 600 mg OD 8 days, ketoconazole 400 mg Day 8",50%
same,corresponding increase in mifepristone AUC,[5]; [11],38.01%
same,corresponding increase in mifepristone Cmax,[5]; [11],27.59%
same,concentrations on Day 17 compared with Day 12,"[5]; Day 17: mifepristone 600 mg daily + ketoconazole 200 mg twice daily, Day 12: mifepristone alone",higher
same,"Ratio % Test/Reference, AUC0-24 (geometric mean ratio)",[5]; [12],138.01%
same,"Ratio % Test/Reference, Cmax (geometric mean ratio)",[5]; [12],127.59%
same,effect of co-administration with ketoconazole on exposure,[5]; mifepristone 600 mg OD + ketoconazole 200 mg BID,increased
same,exposures as share of those following the highest labeled dose of mifepristone (1200 mg daily),[6]; 600 mg mifepristone OD + 200 mg ketoconazole BID,approximately 85%
same,"Ratio % Test/Ref, AUC0-24 (geometric mean ratio)",[6]; [13],87.27%
same,"Ratio % Test/Ref, Cmax (geometric mean ratio)",[6]; [13],84.64%
same,mifepristone exposure less than that of 1200 mg mifepristone in the absence of ketoconazole,[6]; mifepristone 600 mg co-administered with ketoconazole,13-15%
same,deaths or SAEs,[7],No deaths or SAEs
same,severe TEAEs,[7],No severe TEAEs
same,liver function of the patient,[8]; mifepristone reduced from 600 mg to 300 mg daily,not significantly compromised
same,liver function of the patient,[8]; mifepristone reduced from 900 mg to 600 mg daily,not significantly compromised
same,liver function of the patient,[8]; mifepristone reduced from 1200 mg to 900 mg daily,not significantly compromised
same,liver function of the patient,[8]; mifepristone reduced from 1500 mg to 1200 mg daily,not significantly compromised
